This series is described as follows: Dynamic Vapour Sorption (DVS) assessment. In kind it is physicochemical. As to the method:
A Dynamic Vapour Sorption (DVS) profile of Form 1 was obtained using an SMS DVS-1 with water as a reagent at 25° C. 20-30 mg of sample were placed in a glass bulb and equilibrated at 30% RH. The % RH was increased to 90% in 10% steps.

Counter-ions that a name gives are not always drawn.

Consider `COc1cc(NC(=O)CCN2CCC(OC(=O)Nc3ccccc3-c3ccccc3)CC2)c(Cl)cc1CNC[C@H](O)c1ccc(O)c2[nH]c(=O)ccc12` [Form 1, Biphenyl-2-ylcarbamic Acid 1-[2-(2-Chloro-4-{[(R)-2-hydroxy-2-(8-hydroxy-2-oxo-1,2-dihydroquinolin-5-yl)ethylamino]methyl}-5-methoxyphenylcarbamoyl)-ethyl]piperidin-4-yl Ester Succinic Acid Salt (Form 1)], for which the deliquescence entry (exposed to atmospheric moisture / DVS profile) is given as “not to be deliquescent”. The “weight gain (hygroscopicity)” value (humidity range of 30% relative humidity to 90% relative humidity, water, 25° C.) was “less than 2.0%”. In addition, the sorption/desorption profile entry (two sorption/desorption cycles, 0-90% RH in 10% steps, 25° C.) is listed as “reversible”.
